Here are results for two compounds from US4154727A, “Dipeptide derivatives and their production” (Shionogi & Co., Ltd., priority 1974, dated 1979).

Test [1] concerns DS male mice. Description: Taming activity (inhibition of fighting responses). The note with it: given 60 minutes prior; inhibition of electroshock-induced fighting responses, 5 pairs of mice. In kind it is in vivo. Here is the method: This test was measured on DS male mice. […] These pairs of mice were selected in the morning and used for drug test in the afternoon. The test compound was administered to both mice of the pairs 60 minutes prior to the experiment. Results were obtained as the mean percentage of inhibition of fighting responses in a group of 5 pairs and shown by ED50 [Tedeschi, et al.: J. Pharmacol Exp. Thev., 125, 28-34 (1959)].

Test [2] deals with DS male mice. Put plainly: Rotarod performance activity. In kind it is in vivo. The following applies: fall from rod (5 rotations per minute) within less than 2 minutes; 10 mice per dose. Here is the method:
(3) Rotarod performance activity
This test was measured on DS male mice. The mouse was put on a scraped rod of wood, 3 cm in diameter, turning at the rate of five rotations per minute. The mice that could remain on the rod for three or more minutes in successive trials were selected and placed in a group of 10 mice for each dose. If the mouse fell down from the rod within less than 2 minutes, the test compound was considered to be effective. Results were shown by ED50 [Dunham, et al.: J. Am. Pharm. Assoc., 46, 208 (1957)].
A general note: Falling from the rotarod earlier than controls is read as motor impairment.

Regarding `CN(C(=O)CNC(=O)CN)c1ccc(Cl)cc1C(=O)c1ccccc1Cl.O` [Compound No. 2, 2-o-chlorobenzoyl-4-chloro-N-methyl-N^α -glycyl-glycinanilide hydrate], the “Taming activity ED50” value with DS male mice [1] is 3.0 mg/kg.

As for `CN(C(=O)CNC(=O)CN)c1ccc(Cl)cc1C(=O)c1ccccc1F.Cl` [Compound No. 3, 2-o-fluorobenzoyl-4-chloro-N-methyl-N^α -glycyl-glycinanilide hydrochloride], the “Rotarod performance ED50” value with DS male mice [2] is 17.0 mg/kg. For the same compound, the “Taming activity ED50” value with DS male mice [1] stood at 1.6 mg/kg.
